We go through 69 compounds from PubChem BioAssay AID179 (DTP/NCI, 2004).

Several values for one entry are separate records, joined by “and”; a condition that tells them apart may be missing. Equal entries are not always repeated. Activity calls are given as the source filed them.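 The calls were made as follows: active = compounds giving half or more protection of infected cells from virus-caused growth loss, again on retest; inactive = the rest.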

This test deals with CEM cells HIV-1 protection, formazan growth assay. The test is described as follows: NCI AIDS Antiviral Assay. The note with it: for IC50: measured here: growth of uninfected CEM cells. The method, boiled down:
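CEM (human) cells, HIV-1 infected vs uninfected, 5-point dosing, formazan growth read-out. Retest threshold 50% protection.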

One may read the EC50 as the concentration that produces a half-maximal response. For orientation: IC50 means the concentration that gives 50% inhibition. For the compound `O=C1c2ccccc2-c2c(Br)c3ccccc3c(=O)n21`, the EC50 was > 100 µM and the IC50 was determined as 69.2 µM.

Consider `COc1cc2c3c(c1OC)-c1ccccc1C(C(O)c1ccccc1)C3N(C)CC2` (configuration not stated), for which the result was inactive.

For the compound `Clc1cc(Cl)c(OCC#CI)cc1Cl`, the EC50 is > 200 µM and the IC50 was found to be 6.92 µM.

Regarding `S=C(N/N=C(/c1ccccc1)c1ccccn1)Nc1ccccc1`, the EC50 was > 0.2 µM and the IC50 stood at 0.0977 µM.

On to `CN=C(NN)NS(=O)(=O)c1cc(C)c(Cl)cc1S`, for which the result was inactive.

Consider `Cc1ccc(S(=O)(=O)n2ccn3c(=O)cc(C)nc23)cc1`, for which the EC50 is > 200 µM and the IC50 is > 200 µM.

On to `c1ccc2c(c1)SCC1COCOC21` (configuration not stated), for which the EC50 is > 631 µM and the IC50 is 617 µM.

As to `CC(C)N(C(=O)C12C3C4C1C1C2C3C41C(=O)N(C(C)C)C(C)C)C(C)C` (configuration not stated), the EC50 was > 72.4 µM and the IC50 is > 72.4 µM.

On to `CSc1s[s+]c(SC)c1[O-]`, for which the result was inactive.

Take `c1ccc(SC(CCCCC(Sc2ccccc2)Sc2ccccc2)Sc2ccccc2)cc1`: the outcome was inactive.

As for `CC1(C)S[C@@H]2[C@H](NC(=O)C3(N)CCCCC3)C(=O)N2[C@H]1C(=O)O`, the EC50 was > 200 µM and the IC50 was > 200 µM.

Regarding `CN(C)P1(=S)NCC(C(C)(C)C)CO1` (configuration not stated), the EC50 was > 105 µM and the IC50 was > 105 µM.

On to `O=C1NC(SSC2=NNC3(C(=O)N2)c2ccccc2-c2ccccc23)=NNC12c1ccccc1-c1ccccc12`, for which the result was inactive.

For `CCOC(=O)C1C2CCC1CC(=NNc1ccc([N+](=O)[O-])cc1[N+](=O)[O-])C2` (configuration not stated), the EC50 is > 50.1 µM and the IC50 came to 19.5 µM.

For `CC(=O)Nc1ccc(S(=O)(=O)Nc2cnc3ccccc3n2)cc1`, the EC50 is > 525 µM and the IC50 was > 525 µM.

Turning to `CC1OC(OCC2COC(O)(Oc3c(-c4ccc(O)c(O)c4)oc4cc(O)cc(O)c4c3=O)C(O)C2O)C(O)C(O)C1O` (configuration not stated), the outcome was inactive.

For `N#Cc1ccccc1-c1nc2c3c(c(N)ccc3n1)C(=O)c1ccccc1-2`, the EC50 was > 200 µM and the IC50 came out at 40.7 µM.

Take `O=c1nc(NC(c2ccccc2)(c2ccccc2)c2ccccc2)ccn1CCCl`: the outcome was inactive.

As for `COc1ccc(-c2c(C#N)c(N)n(C3OC(CO)C(O)C(O)C3O)c(=S)c2C#N)cc1` (configuration not stated), the EC50 is > 200 µM; the 50% inhibitory concentration (IC50) was 95.5 µM and 129 µM.

As to `COC(=O)CN1SC2(SC13C(C)(C)C(=O)C3(C)C)C(C)(C)C(=O)C2(C)C`, the EC50 is > 200 µM and the IC50 was determined as 50.1 µM.

`N#CCCNCCN(CCN(C(=O)Nc1ccccc1)c1ccccc1)C(=O)Nc1ccccc1`: the EC50 is > 200 µM and the IC50 amounted to 93.3 µM.

On to `N/N=C(\N)c1ccc(NC(=O)c2ccc(C(=O)Nc3ccc(/C(N)=N/N)cc3)cc2)cc1`, for which the EC50 is > 200 µM and the half-inhibitory concentration (IC50) amounted to 93.3 µM.

As for `O=c1[nH]c(O)c(/C=N/C(=S)NCc2ccccc2)c(=O)[nH]1`, the EC50 was > 200 µM and the IC50 was 195 µM.

With `Nc1ccc2c(c1)C(=O)N1CCC[C@H]1C(=O)N2`, the EC50 was > 200 µM and the IC50 is > 200 µM.

For `CCc1n[nH]c(=O)n1N`, the outcome was inactive.

Regarding `Cc1ccc2c(c1)S(=O)(=O)NC2=O`, the EC50 was > 1260 µM and the IC50 is 1230 µM.

`CC(=O)NNc1nc(C)c(C(/C=C/c2ccc([N+](=O)[O-])cc2)=N/N)s1`: the EC50 is > 69.2 µM and the IC50 is > 69.2 µM.

With `Cc1cc2c(cc1C)NC(C)CC(=O)N2` (configuration not stated), the EC50 is > 200 µM and the IC50 was > 200 µM.

As for `COc1cc(C2(C#N)CCN(C)CC2)cc(OC)c1OC`, the EC50 is > 871 µM and the IC50 was found to be 437 µM.

Consider `c1ccc2c(c1)C(=NCCCN1CCCCCCC1)c1cccn1-2`, for which the EC50 was > 200 µM and the IC50 turned out to be 47.9 µM.

Consider `O=C1CS(=O)(=O)C(c2ccccc2)N1N1C(=O)CS(=O)(=O)C1c1ccccc1` (configuration not stated), for which the EC50 was > 200 µM and the IC50 is > 200 µM.

`Cc1ccc2c(=O)c3c(O)c4c(cc3n(C)c2c1)OC(C)(C)C=C4`: the EC50 is > 200 µM and the 50% inhibitory concentration (IC50) is > 200 µM.

In the case of `CCNC(=O)N(CC)CN(CC)C(=O)NCC`, the EC50 is > 182 µM and the IC50 was 95.5 µM.

Consider `CCOc1cc(/C=C2\N=C(c3ccccc3)OC2=O)ccc1O`, for which the EC50 is > 23.4 µM and the IC50 is > 23.4 µM.

Consider `CCOC(=O)c1ccc(-c2cccs2)n1C`, for which the EC50 is > 200 µM and the IC50 is 97.7 µM.

On to `Cc1ccc(N=Nc2c(S(=O)(=O)O)cc3cc(NC(=O)Nc4ccc5c(O)c(N=Nc6ccc7cc(S(=O)(=O)O)ccc7c6)c(S(=O)(=O)O)cc5c4)ccc3c2O)cc1`, for which the result was active.

`COc1ccc(/C=C(\C#N)c2ccc(C)cc2)cc1OC`: the EC50 was > 200 µM and the IC50 amounted to 33.1 µM.

For `Nc1nnc(CCC(=O)Nc2cc(Cl)ccc2Cl)n1N`, the EC50 is > 8.71 µM and the IC50 is > 8.71 µM.

Take `O=C(O)C1CCC(c2ccc(F)cc2F)N1` (configuration not stated): the EC50 is > 200 µM and the IC50 was > 200 µM.

`CC(=O)OC1C(C)OC(OC2[C@@H]3C=CO[C@@H](OC4OC(CO)C(O)C(O)C4O)[C@@H]3[C@@]3(CO)O[C@@H]23)C(OC(=O)/C=C/c2ccccc2)C1OC(=O)/C=C/c1ccccc1` (some centres not stated): the EC50 is > 21.9 µM and the IC50 is > 21.9 µM.

Consider `CC(C)=CCC/C(C)=C\CCC1(C)OC(=O)C2CC21` (configuration not stated), for which the EC50 is > 200 µM; the IC50 was 81.3 µM and 36.3 µM.

For the compound `CC12C(=O)NC(c3ccncc3)(c3ccccc31)C1C(=O)N(c3ccccc3)C(=O)C12` (configuration not stated), the EC50 is > 200 µM and the IC50 amounted to 191 µM.

For the compound `CCOC(=O)/C(C#N)=C/c1ccc(C#N)cc1`, the EC50 is > 22.9 µM and the IC50 was > 22.9 µM.

Turning to `CCc1cccc(C(C)C)c1NC(=O)C(=O)C(C(=O)C(=O)OC)c1nc2ccccc2[nH]c1=O` (configuration not stated), the EC50 is > 537 µM and the IC50 turned out to be 269 µM.

Consider `COc1ccc(/C=c2/sc3n(c2=O)NC(c2ccc(Cl)cc2)NN=3)cc1` (configuration not stated), for which the result was inactive.

Consider `CCC1(CC)C(=O)N(C(=O)c2cc(OC)c(OC)c(OC)c2)N(C(=O)c2cc(OC)c(OC)c(OC)c2)C1=O`, for which the EC50 was > 200 µM and the IC50 was found to be 10.7 µM.

As for `Cc1cc(C)c2c(c1)C(=O)c1c(O)ccc(O)c1C2=O`, the outcome was inactive.

In the case of `O=C1c2ccc(S(=O)(=O)O)c(O)c2C(=O)c2ccc(S(=O)(=O)O)c(O)c21`, the result was inactive.

Regarding `NC(Cc1ccc(O)cn1)C(=O)O` (configuration not stated), the EC50 is > 200 µM and the IC50 was > 200 µM.

In the case of `COc1ccc(N(CN2C(=O)CCC2C(=O)O)C(C)=O)cc1` (configuration not stated), the outcome was inactive.

With `N=C(N)c1ccc(OCCCCCOc2ccc(C(=N)N)cc2)cc1`, the EC50 was > 20.4 µM and the IC50 amounted to 1.29 µM.

For `CCc1ccc(Cc2ccc(CC)c(NC(=O)C(=O)C3NC(=S)NC3=O)c2CC)c(CC)c1NC(=O)C(=O)C1NC(=S)NC1=O` (configuration not stated), the EC50 is > 15.1 µM and the IC50 is > 15.1 µM.

As for `C(COC1CC2CC1C1CC3OC3C21)OCCOC1CC2CC1C1CC3OC3C21` (configuration not stated), the EC50 is > 200 µM and the IC50 stood at 77.6 µM.

Consider `COc1nc2ncc([C@@H](OC(C)=O)[C@@H](COC(C)=O)OC(C)=O)nc2c(=O)n1C`, for which the EC50 was > 200 µM and the IC50 was > 200 µM.

Turning to `COC1=C(Br)[C@H](O)[C@@]2(C=C1Br)CC(C(=O)NCCCOc1c(Br)cc(C(O)CNC(C)=O)cc1Br)=NO2` (some centres not stated), the EC50 is > 10 µM and the IC50 turned out to be 6.61 µM.

On to `CO[C@H]1/C=C/O[C@@]2(C)Oc3c(C)c(O)c4c(O)c(c(/C=N/N5CCCN(Cc6ccccc6)CC5)c(O)c4c3C2=O)NC(=O)/C(C)=C\C=C\[C@H](C)[C@H](O)C(C)[C@@H](O)C(C)[C@H](OC(C)=O)[C@@H]1C` (some centres not stated), for which the EC50 was > 200 µM and the half-inhibitory concentration (IC50) was 8.32 µM.

Turning to `CCCCCCC[C@@H](O)CC(=O)NC(CC(C)C)C(=O)NC(CCC(=O)O)C(=O)NC1C(=O)NC(C(C)C)C(=O)NC(CC(C)C)C(=O)NC(CO)C(=O)NC(CC(C)C)C(=O)NC(CO)C(=O)NC(C(C)CC)C(=O)OC1C` (some centres not stated), the EC50 was 91.2 µM and the IC50 amounted to 166 µM.

For `O=C(C(=Cn1c(=S)[nH]c2ccc([N+](=O)[O-])cc21)C(=O)c1ccccc1)c1ccccc1`, the EC50 is > 200 µM and the IC50 worked out at 81.3 µM.

On to `COc1ccc(-n2sc3ncc(C)cc3c2=O)cc1`, for which the EC50 was 0.49 µM and the IC50 was 10.5 µM.

In the case of `COc1c(OC2OC(CO)C(O)C(O)C2O)cc2occ(-c3ccc4c(c3)OCO4)c(=O)c2c1O` (configuration not stated), the EC50 was > 200 µM and the IC50 was > 200 µM.

Turning to `C/C=C1\C[C@@H]2C(OC)Nc3cc(O)c(OC)cc3C(=O)N2C1` (some centres not stated), the EC50 is > 813 µM and the half-maximal inhibitory concentration (IC50) was 0.263 µM.

`CC(=O)NC1C(OCc2ccccc2)OC(CO)C(O)C1OC(C)C(=O)N[C@@H](C)C(=O)N[C@H](CCC(=O)OCCNc1c2ccccc2nc2cccc([N+](=O)[O-])c12)C(N)=O` (some centres not stated): the EC50 was > 0.02 µM and the 50% inhibitory concentration (IC50) was found to be 0.000339 µM.

Take `COc1ccc(C=C2C(=O)c3ccccc3C2=O)cc1`: the result was inactive.

In the case of `COc1ccc(N=C2S/C(=N\C(=Nc3ccccc3)SCc3ccccc3)N(c3ccccc3)C2=Nc2ccc(OC)cc2)cc1`, the EC50 is > 200 µM and the IC50 was 120 µM.

As for `O=C1c2ccccc2C(=O)N1C/C=N/NS(=O)(=O)c1ccc(F)cc1`, the EC50 was > 363 µM and the IC50 was > 363 µM.

In the case of `COC(=O)CCC(NC(=O)C(C)NC(=O)COC1C(O)C(OC(=O)CCNc2c3ccccc3nc3cccc([N+](=O)[O-])c23)OC(OCc2ccccc2)C1NC(C)=O)C(N)=O` (configuration not stated), the result was inactive.

Turning to `CN(C)CCCc1cccc2[nH]c3c(c12)CN(C)CC3`, the EC50 was > 200 µM and the IC50 was 126 µM.

In the case of `NC(Cc1ccccc1)C(=O)NC(Cc1ccccc1)NC(=O)C(Cc1c[nH]c2ccccc12)C(=O)O` (configuration not stated), the result was inactive.

For `O=C1NCN(c2ccccc2)C12CCN(CC1COc3ccccc3O1)CC2` (configuration not stated), the EC50 is > 200 µM and the IC50 was > 200 µM.
